Assay results as given in PubChem BioAssay (NCI).
Several values for one entry are separate records, joined by “and”; a condition that tells them apart may be missing. Equal entries are not always repeated.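 1) Cells in 96-well plates. 2) Compound, 48 h, 5 concentrations. 3) Linear interpolation between surrounding doses. 4) Unreached endpoint = highest concentration. The concentration for 50% growth inhibition is given as GI50. TGI: concentration producing complete growth inhibition.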

Legend:
Assay in all cases: growth of human tumour cells (NCI), 48 h
[1] = tested on: SK-OV-3 ovarian
[2] = tested on: HCT-116 colon
[3] = tested on: OVCAR-8 ovarian
[4] = tested on: K-562 leukemia
[5] = tested on: UACC-62 melanoma
[6] = tested on: SN12C renal
[7] = tested on: SNB-75 CNS
[8] = tested on: MDA-MB-231 breast
[9] = tested on: MDA-MB-435
[10] = tested on: NCI/ADR-RES ovarian

Structure (SMILES)	TGI [1]	TGI [2]	TGI [3]	TGI [4] [µM]	TGI [5] [µM]	TGI [6]	TGI [7]	GI50 [1] [µM]	GI50 [2]	GI50 [3] [µM]	GI50 [4] [µM]	GI50 [5] [µM]	GI50 [8] [µM]	TGI [8] [µM]	GI50 [9] [nM]	TGI [9]	GI50 [6] [nM]	GI50 [10] [nM]	TGI [10]	GI50 [7] [µM]
O=c1cccccc1NCCOCCNc1cccccc1=O	> 100 µM	> 100 µM	> 100 µM	> 100	> 100	> 100 µM	> 100 µM	–	–	–	–	–	–	–	–	–	–	–	–	–
Oc1ccccc1-c1nn(CNc2cccc(Cl)c2)c(=S)o1	> 100 µM	> 100 µM	> 100 µM	> 100	> 100	> 100 µM	–	> 100	25.3 µM	> 100	38.4	41.5	60.2	> 100	77100	> 100 µM	> 100000	371	40 µM	–
COc1ccc(C(=O)C(c2ccc(OC)cc2)C2(O)C(=O)Nc3ccccc32)cc1 (stereo not given)	> 100 µM	> 100 µM	–	> 100	> 100	> 100 µM	> 100 µM	–	–	–	–	–	–	–	–	–	–	–	–	–
O=c1/c(=C/c2cccc([N+](=O)[O-])c2)sc2nc3ccccc3n12	> 100 µM	> 100 µM	> 100 µM	> 100	> 100	> 100 µM	> 100 µM	–	–	–	–	–	–	–	–	–	–	–	–	–
Cc1cc(O)cc2oc(=O)c3c(O)cc(O)cc3c12	45.5 µM	37.6 µM	> 100 µM	> 100	81	> 100 µM	32.2 µM	–	–	–	–	–	–	–	–	–	–	–	–	–
COC(=O)C1=C(O)c2cc(OC)c(OC)c(OC)c2[C@H](c2cc(OC)c(OC)c(OC)c2)C1C(=O)OC (stereo not given in full)	> 100 µM	> 100 µM	> 100 µM	86.1	76	> 100 µM	> 100 µM	–	–	–	–	–	–	–	–	–	–	–	–	–
CCN(CC)CCCC(C)Nc1cnc(C(=O)Nc2ccc(Cl)c3cccnc23)cn1 (stereo not given)	26 µM	–	10 µM	3.71	3.43	5.53 µM	15.1 µM	12.9	–	3.17	1.05	1.85	1.68	3.76	1810	3.43 µM	2190	2550	9.33 µM	3.18
CCOC(=O)/C(O)=C(/c1n[nH]c(=O)c2ccccc12)[N+](=O)[O-]	> 100 µM	> 100 µM	> 100 µM	> 100	> 100	> 100 µM	> 100 µM	–	–	–	–	–	–	–	–	–	–	–	–	–
CC1(C)COC(C23C4C5C2C2C3C4C52I)=N1 (stereo not given)	> 100 µM	–	> 100 µM	> 100	> 100	> 100 µM	–	–	–	–	–	–	–	–	–	–	–	–	–	–
[O-]c1c2c(nn1-c1ccccc1)c1ccccc1c[n+]2Cc1ccccc1	> 100 µM	> 100 µM	> 100 µM	> 100	> 100	> 100 µM	> 100 µM	–	–	–	–	–	–	–	–	–	–	–	–	–
O=c1c2cccc(Cl)c2sc2c(NCCCNCCO)nc3ccccc3c12	–	3.13 µM	11.9 µM	4.03	3.15	14 µM	22 µM	–	1.57 µM	2.91	1.81	1.65	1.4	3.54	1820	3.55 µM	2620	2980	12.1 µM	7.69
CC(=O)[CH-]C(=O)c1ccccc1.CC(=O)[CH-]C(=O)c1ccccc1.CC[O-].CC[O-].[Zr+4]	> 100 µM	> 100 µM	> 100 µM	> 100	> 100	> 100 µM	> 100 µM	> 100	> 100 µM	> 100	> 100	> 100	–	–	–	–	> 100000	–	–	> 100
O=S(=O)(O)O.[NH-]C1CCCCC1[NH-].[Pt+2] (stereo not given)	> 100 µM	> 100 µM	> 100 µM	> 100	> 100	> 100 µM	61.5 µM	> 100	43.4 µM	80.1	37	> 100	–	–	–	–	> 100000	–	–	0.722
COc1cc2nc(-c3cnc(N(C)C)nc3)nc(NC3CCN(Cc4ccccc4)CC3)c2cc1OC	3.08 µM	1.32 µM	3.97 µM	1.95	3.29	3.49 µM	2.86 µM	1.7	0.316 µM	1.68	0.369	1.73	1.57	3.4	1380	2.81 µM	1770	–	–	1.43
O=S1c2ccccc2N=C(c2ccc3ccccc3c2)CC1C1=CC=CCC1 (stereo not given)	50.4 µM	–	49.4 µM	27.4	34.5	36.9 µM	50.6 µM	–	–	–	–	–	–	–	–	–	–	–	–	–
Cc1cc(NS(=O)(=O)c2ccc(N=Nc3cc(N=Nc4ccc(S(=O)(=O)Nc5cc(C)nc(C)n5)cc4)c4c(NC(=O)C(Cl)Cl)cccc4c3OC(=O)C(Cl)Cl)cc2)nc(C)n1 (tested in a mixture with another compound)	> 100 µM	> 100 µM	> 100 µM	> 100	51.4	37.8 µM	76.9 µM	–	–	–	–	–	–	–	–	–	–	–	–	–
Cc1c(Cl)ccc2c1NC(=O)C2(O)C(C(=O)c1ccccc1)c1ccccc1 (stereo not given)	> 100 µM	> 100 µM	> 100 µM	> 100	46	> 100 µM	> 100 µM	–	–	–	–	–	–	–	–	–	–	–	–	–
Cc1ccc(NC(=O)C(=O)C2C(=O)N(c3ccccc3)N=C2N)cc1C (stereo not given)	> 100 µM	> 100 µM	> 100 µM	> 100	> 100	> 100 µM	> 100 µM	–	–	–	–	–	–	–	–	–	–	–	–	–
Cc1[nH]c2ccccc2c1C1Cc2ccccc2N1C(=O)/C=C/C=C/c1ccccc1 (stereo not given)	> 100 µM	> 100 µM	> 100 µM	> 100	> 100	> 100 µM	> 100 µM	–	–	–	–	–	–	–	–	–	–	–	–	–
Cc1nc(Cl)nc(Cl)c1C	> 100 µM	–	> 100 µM	> 100	–	> 100 µM	> 100 µM	–	–	–	–	–	–	–	–	> 100 µM	–	–	> 100 µM	–

Structure (SMILES)	TGI [1]	TGI [2]	TGI [3]	TGI [4] [µM]	TGI [5] [µM]	TGI [6]	TGI [7]	GI50 [1] [µM]	GI50 [2]	GI50 [3] [µM]	GI50 [4] [µM]	GI50 [5] [µM]	GI50 [8] [µM]	TGI [8] [µM]	GI50 [9] [nM]	TGI [9]	GI50 [6] [nM]	GI50 [10] [nM]	TGI [10]	GI50 [7] [µM]
COc1cc(/C=C2/C(=O)N(C(=O)OC(C)C)C(Cc3cc(OC)c(OC)c(C)c3OC)C(=O)N2Cc2ccccc2)c(OC)c(C)c1OC (stereo not given)	> 100 µM	> 100 µM	> 100 µM	> 100	> 100	> 100 µM	> 100 µM	–	–	–	–	–	–	–	–	–	–	–	–	–
COc1ccc(C(=O)OCC2OC(n3cnc4c(=S)nc[nH]c43)C(OC(=O)c3ccc(OC)cc3)C2OC(=O)c2ccc(OC)cc2)cc1 (stereo not given)	–	> 100 µM	> 100 µM	> 100	> 100	–	77 µM	–	–	–	–	–	–	–	–	–	–	–	–	–
CCOC(=O)C12CCCC1(O)N(NC(=O)c1ccccc1)C(C)=C2C(=O)OC (stereo not given)	> 100 µM	> 100 µM	> 100 µM	> 100	> 100	> 100 µM	–	–	–	–	–	–	–	–	–	–	–	–	–	–
COC(=O)C1=C2CCC(=O)[C@@]2(C)C(OC(C)=O)C=CC1 (stereo not given in full)	> 100 µM	69.6 µM	> 100 µM	> 100	> 100	> 100 µM	> 100 µM	–	–	–	–	–	–	–	–	–	–	–	–	–
CC1CC2(C)ON=C(c3ccccc3)N2c2ccccc2S1 (stereo not given)	91.9 µM	49.6 µM	–	43	84.3	34.2 µM	–	9.55	21.4 µM	37.3	16.3	21	–	–	26000	93.3 µM	18000	17600	46.6 µM	41.8
O=C(O)C(CP(=O)(O)O)=C(Cl)Cl	> 100 µM	> 100 µM	> 100 µM	–	> 100	> 100 µM	> 100 µM	–	–	–	–	–	–	–	–	–	–	–	–	–
CC(C)=CCC[C@H](C)[C@@H]1CC[C@]2(C)C3CC[C@]4(OC4(C)C)C(CCCO)[C@]3(C)CC[C@@]12C (stereo not given in full)	–	> 100 µM	> 100 µM	73.3	30.4	–	58 µM	–	29 µM	37.7	25.3	13.6	20.5	43.3	22600	48.8 µM	–	23500	59.2 µM	29.8
CC(=O)OC(/C=C1/C=CC(=O)O1)COC(=O)c1ccccc1 (stereo not given)	> 31.2 µM	> 31.2 µM	> 31.2 µM	> 31.2	> 31.2	> 31.2 µM	> 31.2 µM	–	–	–	–	–	–	–	–	–	–	–	–	–
COc1ccc2c(=O)c(C)c(-c3ccccc3)oc2c1CN(C)C	> 100 µM	> 100 µM	> 100 µM	> 100	> 100	> 100 µM	> 100 µM and 98.4 µM	–	–	–	–	–	–	–	–	–	–	–	–	–
Cc1ccc(NC(=O)CCC(CC(=O)C(C)(C)C)=NNC(=O)C(=O)NN)cc1C	> 100 µM	–	> 100 µM	> 100	> 100	> 100 µM	> 100 µM	–	–	–	–	–	–	–	–	–	–	–	–	–
CC1=C(C(=O)Nc2ccc(F)c(Cl)c2)C(c2ccccc2Cl)NC(=S)N1 (stereo not given)	> 50 µM	> 50 µM	> 50 µM	> 50	> 50	42.9 µM	–	> 50	22.4 µM	42.7	21.7	9.63	19.6	> 50	30100	> 50 µM	13300	18000	49.1 µM	–
CCC[CH2][Sn]1([CH2]CCC)[O]C(=O)c2cc(I)cc(I)c2[O]1	4.65 µM	2.72 µM	3.01 µM	1.25	2.17	2.96 µM	2.25 µM	2.09	1.42 µM	1.41	0.284	1.01	–	–	–	–	1420	–	–	1.04
Cc1cc2c(cc1Cl)SC1=CC(=O)N(c3ccccc3)C1=NS2(=O)=O	> 100 µM	> 100 µM	> 100 µM	–	> 100	> 100 µM	–	> 100	30.9 µM	57.1	–	33	43.7	> 100	> 100000	> 100 µM	32000	37800	> 100 µM	–
O=c1cc(-c2cccc(C(F)(F)F)c2)[nH]c2cc3c(cc12)OCO3	29.1 µM and 16.8 µM	19.1 µM and 29.4 µM	21.5 µM and 18.5 µM	> 100	–	50 µM and > 100 µM	–	0.326	1.98 µM and 0.482 µM	0.482	–	0.356	–	30.1	175	1.95 µM and 0.366 µM	735	251	2.14 µM and 0.829 µM	–
COc1ccc(-c2[nH]c3ccccc3c2C=C(C#N)C#N)cc1	5.89 µM	> 21.1 µM	> 100 µM	–	–	> 100 µM	20.5 µM	0.434	0.41 µM	1.1	–	0.347	0.543	> 22.6	130	0.469 µM	1150	335	4.7 µM	0.412
COC(=O)/C=C1/CCC2[C@@H](C(=O)CC3[C@]2(C)CCC[C@@]3(C)C(=O)OC)C1C (stereo not given in full)	51.6 µM	19.1 µM	34.9 µM	14.2	30.1	40.6 µM	–	–	–	–	–	–	–	–	–	–	–	–	–	–
CCOC(C)C(/C=N/NC(N)=S)=NNC(N)=S (stereo not given)	> 100 µM	–	> 100 µM	> 100	> 100	> 100 µM	> 89.4 µM	–	–	–	–	–	–	–	–	–	–	–	–	–
COc1cc(/C=C2\[C@H]3c4c(c(OC)c(C)c(OC)c4OC)C[C@@H](C(=O)N2Cc2ccccc2)N3C(=O)OCC(C)C)c(OC)c(C)c1OC	> 100 µM	> 100 µM	> 100 µM	> 100	> 100	> 100 µM	> 100 µM	–	–	–	–	–	–	–	–	–	–	–	–	–
C/C(=C\C(C)COCc1ccccc1)[C@H](COCc1ccccc1)OCc1ccccc1 (stereo not given in full)	> 100 µM	> 100 µM	> 100 µM	> 100	> 100	> 100 µM	> 100 µM	–	–	–	–	–	–	–	–	–	–	–	–	–
O=S(=O)(/C=C/c1ccc(Cl)cc1Cl)Cc1ccccc1CS(=O)(=O)/C=C/c1ccc(Cl)cc1Cl	> 100 µM	> 100 µM	> 100 µM	> 100	> 100	> 100 µM	> 100 µM	–	–	–	–	–	–	–	–	–	–	–	–	–
